Here are results for five compounds from patent US9169481B2, “Cell-mediated directed evolution” (priority 2006, dated 2015).

Where “and” joins values, the source holds several entries; their conditions need not be identical. Identical values can stand only once.

The target of data set [1] is lipocalin (de novo selected). Conditions: Beste et al., 1999; read-out: dissociation constant; cited from earlier work.
Data set [2] concerns D-2-deoxyribose-5-phosphate aldolase (DERA) variant. Conditions: directed evolution with in vitro screen; DeSantis et al., 2003; cited from earlier work.
Data set [3] has as its system O=[N+]([O-])c1ccc(O[C@@H]2O[C@H](CO)[C@@H](O[C@@H]3O[C@H](CO)[C@@H](O)[C@H](O)[C@H]3O)[C@H](O)[C@H]2O)cc1. Kind of data set: Steady-state kinetics of pNPC hydrolysis (release of p-nitrophenol), CelN. The data set is classed as biochemical, Erwinia carotovora. The settings on record: other: pNPC, pH 7, room temperature. An excerpt: (§1) The DNA shuffling vector, pPPY2148, was constructed by digesting p425Met25 (ATCC) with HindIII and PstI and introducing an 800 bp stuffer flanked by SfiI sites. The catalytic domain of four family 5 cellulases with 77-90% sequence identity, E. carotovora CelN (Olsen et al., 1996, Biotechnology (N Y) 14:71-76), CelVI (Mae and Palva, 1995, Mol Gen Genet. 247:17-26), CelA (Park et al., 1997, Biochem Biophys Res Commun. 241:636-641) and CelT (cloned from the E. carotovora subs. atroceptica (Bell et al., 2004, Proc Natl Acad Sci USA. 101: 11105-11110) genomic DNA) were cloned into pPY2148 to create plasmids pPPY2230, pPPY2232, pPPY2234 and pPPY2236 respectively. A ^6His-tag was added at the C-terminus of the four parent genes to facilitate protein purification after selection. The catalytic domain of these cellulases was identified by sequence comparison with the catalytic domain of Bacillus agaradhaerens Cel5A, which has 68% sequence identity at the amino acid level with the parent genes and which three dimensional X-ray structure is available (Davies et al., 1998, Biochemistry 37: 1926-1932; Davies et al., 1998, Biochemistry 37: 11707-11713; Varrot et al., 2000, J Mol Biol. 297: 819-828; Varrot et al., 2001, Acta Crystallogr D Biol Crystallogr. 57: 1739-1742; Varrot and Davies, 2003, Acta Crystallogr D Biol Crystallogr. 59: 447-452). The cellulase genes were shuffled using standard procedures with slight variations (Zhao and Arnold, 1997, Nucleic Acids Res. 25: 1307-1308). To introduce the shuffled product into the shuffling vector via homologous recombination, 30 bp homology to the shuffling vector was introduced at the 5′ and 3′ end of the shuffled product by carrying an extra amplification step of the shuffling product primers VC1658-VC1659. 7.5 ng of shuffled product (1.4E11 shuffled product molecules assuming each base pair is 330M and the shuffled product was 1000 bp) was used as a template in a 100 ul amplification reaction. The product was purified in a 2% agarose gel.
(§2) Ten colonies selected on day 8 and 9 were characterized in vitro using para-nitrophenyl cellobioside (pNPC) as a substrate. The cellulase chimeras were amplified from the shuffling vector using primers PPY100 and PPY103 and subcloned into the T7-expression vectors pAED4 between NdeI and HindIII sites. The cellulase chimeras were over expressed in E. coli and purified using a Nickel affinity column. Protein concentration was determined using the extinction coefficient of the parent genes ε=76890 and absorption at A280. To determine the kinetic constants for the hydrolysis of pNPC, the cellulase chimeras were incubated at room temperature in phosphate buffer (25 mM K2HPO4, 100 mM NaCl, pH=7) containing various concentrations of the substrate, and the release of p-nitrophenol (εpH=7=4000M^−1 cm^−1, A420) was recorded continuously in a SpectraMax Plus 384 spectrophotometer.
(§3) The three starting cellulases and the improved cellulase variants were subcloned into the E. coli T7 vector, pAED4, between NdeI and HindIII sites to give vectors pPPY2256 (CelN), pPPY2258 (CelA), pPPY2257 (CelV), pPPY2291 (Cel—3.7), and pPPY2292 (Cel—5.7). The cellulases were purified using Quick spin Ni-NTA affinity column (Qiagen). Protein concentration was determined using the extinction coefficient of the starting genes (ε=76670) and absorption at 280 nm. […] The release of p-nitrophenol (εpH 7=4000M−1 cm−1, A420) was recorded continuously in a SpectraMax Plus 384 spectrophotometer at 420 nm.

Data set [4] deals with Erwinia carotovora shuffled cellulase variant Cellulase 8, SEQ ID NO:16. As to the kind of experiment: Steady-state kinetics of pNPC hydrolysis, Cellulase 8. Type of data set: biochemical. Conditions: pH 7, room temperature. The procedure: as §2
(§4) The three starting cellulases and the improved cellulase variants were subcloned into the E. coli T7 vector, pAED4, between NdeI and HindIII sites to give vectors pPPY2256 (CelN), pPPY2258 (CelA), pPPY2257 (CelV), pPPY2291 (Cel—3.7), and pPPY2292 (Cel—5.7). The cellulases were purified using Quick spin Ni-NTA affinity column (Qiagen). Protein concentration was determined using the extinction coefficient of the starting genes (ε=76670) and absorption at 280 nm. To determine the kinetic constants for the hydrolysis of pNPC, the cellulase chimeras were incubated at room temperature in phosphate buffer (25 mM K2HPO4, 100 mM NaCl, pH 7) containing seven different concentrations of pNPC ranging from 12 mM to 0.185 mM. The release of p-nitrophenol (εpH 7=4000M−1 cm−1, A420) was recorded continuously in a SpectraMax Plus 384 spectrophotometer at 420 nm.

Data set [5] concerns Erwinia carotovora cellulase CelA (Cellulase A), catalytic domain, parent. As to the kind of experiment: Steady-state kinetics of pNPC hydrolysis (release of p-nitrophenol), CelA. Conditions: pH 7, room temperature. Type of data set: biochemical.
Text: as §1, with “To introduce the shuffled product into the shuffling vector via homologous recombination, 30 bp homology to the shuffling vector was introduced at the 5′ and 3′ end of the shuffled product by carrying an extra amplification step of the shuffling product primers VC1658-VC1659. 7.5 ng of shuffled product (1.4E11 shuffled product molecules assuming each base pair is 330M and the shuffled product was 1000 bp) was used as a template in a 100 ul amplification reaction. The product was purified in a 2% agarose gel.” left out
as §2, with “The cellulase chimeras were amplified from the shuffling vector using primers PPY100 and PPY103 and subcloned into the T7-expression vectors pAED4 between NdeI and HindIII sites. The cellulase chimeras were over expressed in E. coli and purified using a Nickel affinity column.” left out
The three starting cellulases and the improved cellulase variants were subcloned into the E. coli T7 vector, pAED4, between NdeI and HindIII sites to give vectors pPPY2256 (CelN), pPPY2258 (CelA), pPPY2257 (CelV), pPPY2291 (Cel—3.7), and pPPY2292 (Cel—5.7). […] Protein concentration was determined using the extinction coefficient of the starting genes (ε=76670) and absorption at 280 nm. […] The release of p-nitrophenol (εpH 7=4000M−1 cm−1, A420) was recorded continuously in a SpectraMax Plus 384 spectrophotometer at 420 nm.

Data set [6] concerns Erwinia carotovora shuffled cellulase variant Cellulase 3, SEQ ID NO:8. As to the kind of experiment: Steady-state kinetics of pNPC hydrolysis, Cellulase 3. The data set is classed as biochemical. The settings on record: pH 7, room temperature. On the procedure: as §2, §4
Data set [7] deals with Erwinia carotovora cellulase CelN (Cellulase N), catalytic domain, parent (Pectobacterium atrosepticum, UniProt Q59394). As to the kind of experiment: Steady-state kinetics of pNPC hydrolysis (release of p-nitrophenol), CelN. Conditions: pH 7, room temperature. Type of data set: biochemical.
Text: as §1, §2, §3

Data set [8] concerns Erwinia carotovora shuffled cellulase variant Cellulase 4 (CELLVAR1, Colony 1), SEQ ID NO:3. As to the kind of experiment: Steady-state kinetics of pNPC hydrolysis, Cellulase 4. The data set is classed as biochemical. Conditions: pH 7, room temperature. On the procedure: as §2, §4
In data set [9] the test system is Erwinia carotovora CelN/CelA/CelV shuffled variant Cellulase 1 (CELLVAR2, Colony 2, Cel_3.7), vs CelN: S126N, D157E, Q186L, L193M, V2541, T288A, E295A, G30A …. Kind of data set: Steady-state kinetics of pNPC hydrolysis, Cellulase 1. The data set is classed as biochemical. The procedure:
as §2, §4
Cel—3.7 (cellulase 1) contains nine crossovers. […] A homology model of Cel—3.7 (cellulase 1) was made, utilizing the B. agaradherans Cel5A structure (SwissProt: O85465; PDB: 1h5v) with the inhibitor methyl 4,4II,4III,4IV-tetrathio-α-cellopentoside bound to the active site, using Swiss-Model (FIG. 28A). The eight mutations accessible with the homology model map onto the surface of the enzyme, away from the extended carbohydrate binding site.

Data set [10] concerns Erwinia carotovora shuffled cellulase variant Cellulase 7, SEQ ID NO:14. Kind of data set: Steady-state kinetics of pNPC hydrolysis, Cellulase 7. Conditions: pH 7, room temperature. The data set is classed as biochemical. On the procedure: as §2, §4
Data set [11] concerns the target Erwinia carotovora cellulase CelV (Cellulase V; = CelT, Cellulase T), catalytic domain, parent (Pectobacterium atrosepticum, UniProt Q6D5R0). As to the kind of experiment: Steady-state kinetics of pNPC hydrolysis (release of p-nitrophenol), CelT = CelV. Type of data set: biochemical. The settings on record: pH 7, room temperature.
Text: as §1, §2, §3

For data set [12], the system named is Erwinia carotovora shuffled cellulase variant Cellulase 5, SEQ ID NO:10. Kind of data set: Steady-state kinetics of pNPC hydrolysis, Cellulase 5. Type of data set: biochemical. The settings on record: pH 7, room temperature. The procedure: as §2, §4
Data set [13] deals with Erwinia carotovora shuffled cellulase variant Cellulase 6, SEQ ID NO:12. Kind of data set: Steady-state kinetics of pNPC hydrolysis, Cellulase 6. The data set is classed as biochemical. The settings on record: pH 7, room temperature. On the procedure: as §2, §4
The subject of data set [14] is Erwinia carotovora CelN/CelA/CelV shuffled variant Cellulase 2 (Cel_5.7), vs CelN: A86V, S126N, E154D, T172S, C208R, T262S, A267T, A272T; SEQ ID NO:6. Kind of data set: Steady-state kinetics of pNPC hydrolysis, Cellulase 2. The data set is classed as biochemical. The procedure: as §2, §4
A homology model of Cel—5.7 (cellulase 2) was made, again utilizing the same structure of B. agaradherans Cel5A, using Swiss-Model (FIG. 28b)^38. Four mutations are in the C-terminus loops that compose the extended carbohydrate binding site, while the other 4 map onto the surface of the enzyme. Although mutation T172S is located in C-terminus loop 5, it is 15 Å away from closest hexose ring in the substrate inhibitor. Mutations T262S, A267T, A272T are located in C-terminus loop 8. The mutation T262S is the closest to the substrate inhibitor, 6 Å away from the 6′-OH of the hexose ring in the −3 subsite. […] This mutation is located at the N-terminus of the barrel and points towards the solvent.

The test system of data set [15] is O=[N+]([O-])c1ccc(O[C@@H]2O[C@H](CO)[C@@H](O[C@@H]3O[C@H](CO)[C@@H](O)[C@H](O)[C@H]3O)[C@H](O)[C@H]2O)cc1. As to the kind of experiment: Steady-state kinetics of pNPC hydrolysis (release of p-nitrophenol), CelT = CelV. Type of data set: biochemical, Erwinia carotovora. The settings on record: other: pNPC, pH 7, room temperature.
Text: as §1, §2, §3

On to `O=C1OC2(c3ccc(O)cc3Oc3cc(O)ccc32)c2ccccc21` [fluorescein], for which the Kd in [1] is 65 nM.

With `O=C[C@H](O)CO` [D-glyceraldehyde], in [2], the “improvement in catalytic efficiency” value is 2.5 fold.

One may read the Km as the concentration of substrate that gives half-maximal velocity. By kcat is commonly meant the maximal rate divided by the concentration of active sites. Usually kcat/Km stands for the turnover number divided by the Michaelis constant. For “Erwinia carotovora cellulase CelN (Cellulase N), catalytic domain, parent (Pectobacterium atrosepticum)”, in data set [3], the Km was 3.4 mM, the kcat is 1300 s⁻¹ and the kcat/Km amounted to 374000 M⁻¹ s⁻¹.

For `O=[N+]([O-])c1ccc(O[C@@H]2O[C@H](CO)[C@@H](O[C@@H]3O[C@H](CO)[C@@H](O)[C@H](O)[C@H]3O)[C@H](O)[C@H]2O)cc1` [pNPC, p-nitrophenyl cellobioside], the Kcat in [4] is 840 s⁻¹; in data set [5], 1400 s⁻¹; in data set [6], 5000 s⁻¹; in [7], 1300 s⁻¹; in [8] it was 16000 s⁻¹; in data set [9] (pH 7, room temperature), 4300 s⁻¹. Besides, the Kcat in data set [10] amounted to 110 s⁻¹; in data set [11], 1100 s⁻¹; in [12], 6700 s⁻¹; in data set [13], 210 s⁻¹; in [14] (pH 7, room temperature) it was 5200 s⁻¹. In addition, the Kcat/Km was 200000 M⁻¹ s⁻¹ in [4]; 192000 M⁻¹ s⁻¹ in data set [5]; 1.4 × 10^6 sec^−1M^−1 and 1.4 × 10^6 M^−1sec^−1 in data set [6]; 370000 M⁻¹ s⁻¹ in [7]; 1.1e+07 M⁻¹ s⁻¹ in [8]; 1.4 × 10^6 sec^−1M^−1 and 1.4 × 10^6 M^−1sec^−1 in data set [9] (pH 7, room temperature). The Kcat/Km was 8120 M⁻¹ s⁻¹ and 8100 M⁻¹ s⁻¹ in [10]; 240000 M⁻¹ s⁻¹ in [11]; 4.5e+06 M⁻¹ s⁻¹ in data set [12]; 220000 M⁻¹ s⁻¹ in [13]; 2.1 × 10^6 sec^−1M^−1 and 2.1 × 10^6 M^−1sec^−1 in [14] (pH 7, room temperature). In addition, the Km came to 4.3 mM in data set [4]; 7.2 mM in [5]; 3.6 mM in data set [6]; 1.3 mM in data set [8]; 3.2 mM in data set [9] (pH 7, room temperature); 14 mM in data set [10]. Also, the Km was 1.5 mM in data set [12]; 960 µM and 1000 µM in data set [13]; 2.5 mM and 2.47 mM in [14] (pH 7, room temperature). Further, the Kcat/KM in [5] amounted to 193 s⁻¹ mM⁻¹; in data set [8] it was 12000 s⁻¹ mM⁻¹; in data set [9] (pH 7, room temperature), 1300 s⁻¹ mM⁻¹. For the same compound, the “increase in catalytic efficiency over the best starting cellulase, CelN” value in [9] (relative to CelN) is 3.6 fold and 3.7 fold; in [14] (relative to CelN), 5.3 fold and 5.7 fold.

Turning to “Erwinia carotovora cellulase CelV (Cellulase V; = CelT, Cellulase T), catalytic domain, parent (Pectobacterium atrosepticum SCRI1043)”, in [15], the Km was 4.6 mM, the kcat came out at 1100 s⁻¹ and the kcat/Km was 237000 M⁻¹ s⁻¹.
